The subject of one series is uric acid level in serum. Briefly: phase I clinical test: uric acid level in serum of healthy adult men (enzymatic method). It counts as in vivo. The procedure: Capsules containing 300 mg of the compound of the present invention, N-{3-[4"-(2",6"-dimethylheptyl)phenyl]butanoyl}ethanolamine, were administered to 5 healthy adult men for 7 days three times per day after meals. For comparison, a placebo was administered to two other healthy adult men. Thus, the phase I clinical test was conducted.
[…] With respect to the measured values, the significance test was conducted between the group to which the compound of the present invention was administered and the group to which the placebo was administered.
In the above table, each value indicates the uric acid level (mg/dl) in serum, and A through G in the column of "Healthy man" represent the adult men to whom the medicine was administered.

A short description of series [1]: acute toxicity test in rats. The note with it: rat, in vivo. It counts as in vivo. The method, then:
(§1) The acute toxicity test was carried out by oral, intraperitoneal and subcutaneous administration to 7- to 8-week old Sic-SD rats and Slc:ICr mice. The case of death was observed within 5 days from the start of the administration.

For the next series, the system named is Sic-SD rats. Nature of the series: acute toxicity test in rats. It counts as in vivo. The note with it: oral, intraperitoneal and subcutaneous. The procedure:
as §1

Series [2] can be described thus: acute toxicity test in mice. Conditions: mouse, in vivo. The method, then:
as §1

The conditions of series [3]: disclosed in Japanese Patent Laid-Open No. 210050/1986; cited from earlier work.
For series [4] the following is noted: clinical use, prior art; cited from earlier work.

The structures appear in SMILES notation. “And” between values parts separate entries of the source, which are not always exact repeats. Equal entries are not always repeated.

A word on the LD50: it is the dose expected to kill half of the subjects tested. A lower LD50 goes with a more toxic substance. `CC(C)CCCC(C)Cc1ccc(C(C)CC(=O)NCCO)cc1` (stereo not drawn) [compound of the present invention, N-{3-[4'-(2",6"-dimethylheptyl)phenyl]butanoyl}ethanolamine]: in the series with uric acid level in serum (after stop of administration), the “accumulation of the medicinal effect” value was “not observed”. Also, in the series on uric acid level in serum (after stop of administration), the “uric acid level in serum when administration was stopped” value was “promptly elevated to the value before the start of the administration”. The “average uric acid level in serum, 1st day” value with uric acid level in serum (average of men A-E, 1st day, before administration, placebo average 6.0) was 5.8 mg/dL. The “average uric acid level in serum, 4th day” value with uric acid level in serum (average of men A-E, 4th day, 300 mg three times per day, marked *, placebo average 5.7) stood at 3.1 mg/dL. Further, the “average uric acid level in serum, 6th day” value in the series on uric acid level in serum (average of men A-E, 6th day, 300 mg three times per day, marked *, placebo average 5.7) was determined as 2.7 mg/dL. The “average uric acid level in serum, 8th day” value in the series with uric acid level in serum (average of men A-E, 8th day, 300 mg three times per day for 7 days, marked *, placebo average 5.8) worked out at 3.2 mg/dL. Besides, the “average uric acid level in serum, 11th day” value in the series with uric acid level in serum (average of men A-E, 11th day, after 7 days of administration, placebo average 7.1) turned out to be 5.5 mg/dL. For the same compound, the “lowering in the uric acid level in serum” value in the series on uric acid level in serum (fourth day) is listed as “significant lowering in the uric acid level in serum was observed”. Also, the “uric acid level in serum, 1st day” value in the series with uric acid level in serum (individual healthy men A-E (one per line), 1st day, before administration, 300 mg capsules three times per day after meals, 7 days, listed as compound of present invention) was 4.9 mg/dL and 6.4 mg/dL and 5.9 mg/dL and 7.0 mg/dL and 4.7 mg/dL. Further, the “uric acid level in serum, 4th day” value in the series with uric acid level in serum (individual healthy men A-E (one per line), 4th day, 300 mg capsules three times per day after meals, 7 days, listed as compound of present invention) is 8.5 mg/dL and 2.9 mg/dL and 2.6 mg/dL and 3.6 mg/dL and 2.8 mg/dL. Besides, in the series on uric acid level in serum (individual healthy men A-E (one per line), 6th day, 300 mg capsules three times per day after meals, 7 days, listed as compound of present invention), the “uric acid level in serum, 6th day” value was 3.0 mg/dL and 2.6 mg/dL and 2.4 mg/dL and 3.2 mg/dL and 2.5 mg/dL. In addition, in the series on uric acid level in serum (individual healthy men A-E (one per line), 8th day, 300 mg capsules three times per day after meals, 7 days, listed as compound of present invention), the “uric acid level in serum, 8th day” value was 3.2 mg/dL and 3.1 mg/dL and 4.0 mg/dL and 2.7 mg/dL. Also, the “uric acid level in serum, 11th day” value with uric acid level in serum (individual healthy men A-E (one per line), 11th day, after 7 days of 300 mg capsules three times per day after meals, listed as compound of present invention) is 4.8 mg/dL and 5.6 mg/dL and 7.2 mg/dL and 5.3 mg/dL. Also, the LD50 in series [1] (ip, female, intraperitoneal) was 572 mg/kg; in series [1] (ip, male, intraperitoneal), 1340 mg/kg; in series [1] (po, female), 1910 mg/kg; in series [1] (po, male), 4260 mg/kg; in series [1] (sc, female, subcutaneous), 6350 mg/kg; in series [1] (sc, male, subcutaneous), above 8000 mg/kg. In addition, the LD50 is 737 mg/kg in series [2] (ip, female, intraperitoneal); 792 mg/kg in series [2] (ip, male, intraperitoneal); 4580 mg/kg in series [2] (po, female); above 2560 mg/kg in series [2] (po, male); above 5000 mg/kg in series [2] (sc, female, subcutaneous); above 5000 mg/kg in series [2] (sc, male, subcutaneous). Further, the “time of death from the start of the administration” value in the series on Sic-SD rats is recorded as at most 5 days. In series [3], the anticholesterolemic action entry is given as “has an anticholesterolemic action”. In addition, the “solubility in organic solvents” value in the series “solubility” (anhydrous ethanol, ethyl acetate, ethanol, chloroform, acetonitrile and n-hexane) is recorded as “Highly soluble”. In addition, the solubility in water entry in the series “solubility” (water) is on record as “substantially insoluble”.
Regarding `Oc1ncnc2[nH]ncc12` [allopurinol], the adverse effects result in series [4] was “causes efflorescence, gastrointestinal disorders, liver troubles and hematogenic organ troubles”.

Source of the values: patent US4883821A, “Agent for treating hyperuricemia” (Eisai Co., Ltd., priority 1988, dated 1989).
